The values that follow come from article PMC11477000, “Enantioselective Binding of Proton Pump Inhibitors to Alpha1-Acid Glycoprotein and Human Serum Albumin—A Chromatographic, Spectroscopic, and In Silico Study” (International Journal of Molecular Sciences, 2024).

One series has as its target BSA. The note with it: racemic, ref [39]; cited from earlier work.
Series [1] addresses T1, HSA (Homo sapiens, UniProt P02768).
T1 construct: purchased Sigma-Aldrich
The note with it: ref [43]; cited from earlier work.

The target of series [2] is human serum albumin (HSA) (Homo sapiens, UniProt P02768). Nature of the series: Bound percentage by HPLC on HSA column, extrapolation to zero organic modifier. The note with it: for Bound percentage (b%), average: average of IPA, EtOH, MeOH. In kind it is in vitro ADME. How it is done:
(§1) Chromatographic columns containing proteins can be used to determine the percentage of drug binding. A plot of the natural logarithm of the retention factors against the proportion of organic modifiers was created. […] The intercept of these linear equations can be used to calculate the bound percentage according to Equation (4) (see in Section 3.2).
(§2) Chromatographic measurements were carried out on two separate HPLC systems. The AGP binding study was performed on a Waters 2695e chromatographic system paired with a Waters 2996 PDA detector, controlled by Empower 3 FR5 (Waters Corp., Milford, MA, USA), while the HSA binding study was performed on an Agilent 1100 HPLC system, consisting of an inline degasser (G1322A), a quaternary pump (G1311A), an automatic injector (G1329A) paired with sample thermostat (G1330A), a column thermostat (G1316A), and a diode array detector (G1315A) with Agilent Chemstation B04.03-SP2 software (Agilent, Bronnwald, Germany). For the binding studies, two protein-based chiral stationary phases were utilized. The chromatographic binding study for AGP was conducted on a ChromTech Chiral-AGP column (150 mm × 4.0 mm; ChromTech Ltd., Congleton, UK), while the binding study for HSA was performed on a Daicel Chiralpak HSA column (50 mm × 4.0 mm; Daicel Corp., Osaka, Japan). The detection wavelength was 210 nm for all measurements. The stock solutions of PPIs were prepared at a concentration of 1 mg/mL in MeOH. Subsequent dilutions were prepared using water. The injected samples were mixed and diluted from the stock solutions. The final concentration for the eutomer was 0.2 mg/mL, and for the distomer, it was 0.1 mg/mL. A volume of 2 μL was injected. To mitigate the instability of PPIs in aqueous solutions, the samples were kept at a temperature of 4 °C. Cooling the samples to 4 °C prevented significant decomposition for a period of 24 h. After 24 h, new samples were prepared for injection. Chromatographic parameters were calculated based on the following equations. The retention factor (k) was calculated as:(1) k=(tr−t0)/t0 where tr is the retention time of the investigated analyte, and t0 is the dead time, determined as the first peak appearance in the chromatogram. Resolution was calculated based on the following equation:(2) Rs=2(t2−t1)/(w1+w2) where t2 and t1 are the retention times of the second and first eluted enantiomers, respectively, while w is the peak width. The separation factor (α) was calculated as follows:(3) α=k2/k1 where k1 and k2 are the retention factors of the first- and second-eluting enantiomers, respectively. The k values were also used to calculate the protein-bound percentage (b%) using Equation (4):(4) b%=k/1+k×100

For the next series, the system named is AGP. Nature of the series: UV titration (Benesi–Hildebrand) with AGP. The format is binding, human. The note with it: n = 3, 1 μM AGP, pH 7.4 phosphate buffer, 24 °C, 278 nm; for Kd: human, pH 7.4, UV titration, read-out: logKAGP ± Stdev (logarithm of stability constant) (converted). How it is done: (§3) The UV-Vis absorption assay is a straightforward and relatively simple method to examine the interactions between small molecules and macromolecules. Changes in the structure of the protein caused by the interacting ligand can lead to alterations in the absorption spectrum. […] Fixed wavelength measurements were conducted at the absorption maxima of AGP and HSA. […] The change in the absorbance and wavelength maximum in the UV spectra during the titration refers to the complex formation between proteins and PPIs. The Benesi–Hildebrand method was used to determine the stability constants based on Equation (7).
(§4) The absorption spectra were recorded on a Jasco V-750 spectrophotometer (Jasco, Tokyo, Japan) at 24 °C using 1.0 cm path-length quartz cuvettes. Then, 1 μM HSA and AGP were dissolved in a sodium phosphate buffer solution (pH 7.4; 0.1 M) and their concentration was kept constant. The PPIs were dissolved in DMSO, and further diluted with the AGP or HSA solution. Next, 1000 μL of 1 μM HSA and AGP solutions was titrated with the PPI stock solution in 1 μL steps. The concentration of the PPIs was set to 4.00, 7.98, 11.96, 15.94, 19.90, 23.86, 27.81, and 31.75 μM. The binding constants were determined using the Benesi–Hildebrand equation:(7) A0/A−A0=εPPI/εAPPI−εPPI+εPPI/εAPPI−εPPI×1/K×[C] where A0 is the absorbance of the HSA or AGP at 278 nm, A is the absorbance of the formed complex also at 278 nm, εPPI is the extinction coefficient of the actual PPI, εAPPI is the extinction coefficient of the albumin or AGP and PPI complex, K is the binding coefficient, and [C] is the concentration of the investigated PPI. The plot of A0/A − A0 versus C^−1 has a slope of K^−1. All experiments were performed in triplicate.

Series [3] has as its target T1, HSA. Nature of the series: UV titration (Benesi–Hildebrand) with HSA. The format is binding. The note with it: n = 3, 1 μM HSA, pH 7.4 phosphate buffer, 24 °C, 278 nm, read-out: logKHSA ± Stdev. (logarithm of stability constant) (converted). How it is done:
as §3, §4

Series [4] relates to α1-acid glycoprotein (AGP). Nature of the series: Bound percentage by HPLC on AGP column, extrapolation to zero organic modifier. The note with it: for Bound percentage (b%), average: average of IPA, EtOH, MeOH. In kind it is in vitro ADME, human. How it is done:
as §1
as §2, with “Cooling the samples to 4 °C prevented significant decomposition for a period of 24 h.” left out

Series [5] has as its target T1, HSA. The note with it: ref [41]; cited from earlier work.
Where [6] appears, read: extrapolation to zero percent EtOH.
Setting [7] is: extrapolation to zero percent IPA.
Where [8] appears, read: extrapolation to zero percent MeOH.

Where “and” joins values, the source holds several entries; their conditions need not be identical. Equal entries are not always repeated. Where two headings read alike, the source gives them in different places.

Chain of human serum albumin (HSA) (P02768 25-609): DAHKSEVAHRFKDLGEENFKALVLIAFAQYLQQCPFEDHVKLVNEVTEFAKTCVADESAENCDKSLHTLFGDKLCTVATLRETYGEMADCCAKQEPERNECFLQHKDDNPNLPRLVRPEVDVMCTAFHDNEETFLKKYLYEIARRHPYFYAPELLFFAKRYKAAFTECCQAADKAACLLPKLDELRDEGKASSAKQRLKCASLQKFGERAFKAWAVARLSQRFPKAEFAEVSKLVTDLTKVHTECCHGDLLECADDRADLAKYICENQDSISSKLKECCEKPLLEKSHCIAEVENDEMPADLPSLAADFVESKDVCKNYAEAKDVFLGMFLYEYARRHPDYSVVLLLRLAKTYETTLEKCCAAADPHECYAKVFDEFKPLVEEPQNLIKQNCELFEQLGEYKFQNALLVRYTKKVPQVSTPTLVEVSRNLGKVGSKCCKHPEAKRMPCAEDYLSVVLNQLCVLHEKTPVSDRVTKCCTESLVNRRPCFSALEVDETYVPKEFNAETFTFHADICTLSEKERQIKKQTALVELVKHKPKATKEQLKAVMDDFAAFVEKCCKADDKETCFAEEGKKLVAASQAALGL
T1 sequence (P02768 25-609): as above

Turning to `COc1ccnc(C[S+]([O-])c2nc3cc(-n4cccc4)ccc3[nH]2)c1C` (centres unmarked) [Ilaprazole], the logK at BSA is given as 5.63.
`COc1ccnc(C[S+]([O-])c2nc3ccc(OC(F)F)cc3[nH]2)c1OC` (centres unmarked) [Pantoprazole]: at BSA, the logK is reported as 5.04.
With `COc1ccc2[nH]c([S@+]([O-])Cc3ncc(C)c(OC)c3C)nc2c1` [R-omeprazole], the logK on HSA [1] is listed as 3.50. For the same compound, the “Bound percentage (b%), average” value in series [2] was 91.76% and 91.76 ± 1.08%. The “Bound percentage (b%)” value was 92.97% in series [2] (setting [6]), 91.15% in series [2] (setting [7]) and 91.03% in series [2] (setting [8]). Further, the Kd in the series on AGP was 20.4 µM; at HSA [3], 33.9 µM.
As to `COCCCOc1ccnc(C[S@@+]([O-])c2nc3ccccc3[nH]2)c1C` [R-rabeprazole, dexrabeprazole], the “Bound percentage (b%), average” value is 96.78% and 96.78 ± 1.77% in series [4]; 88.84% and 88.84 ± 0.59% in series [2]. In addition, the “Bound percentage (b%)” value is listed as 96.69% in series [4] (setting [6]); 98.60% in series [4] (setting [7]); 95.07% in series [4] (setting [8]); 88.85% in series [2] (setting [6]); 88.24% in series [2] (setting [7]); 89.42% in series [2] (setting [8]). For the same compound, in the series on AGP (UV titration), the “logKAGP ± Stdev (logarithm of stability constant)” value came to 4.59 ± 0.03. Moreover, the Kd was 31.6 µM in the series on AGP and 46.8 µM at HSA [3].
`COc1ccc2nc([S@@+]([O-])Cc3ncc(C)c(OC)c3C)[nH]c2c1` [S-omeprazole, esomeprazole]: the results for the logK on HSA [1] and on HSA [5] were 3.73 and 4.70, respectively. In series [2], the “Bound percentage (b%), average” value was 91.76% and 91.76 ± 1.08%. Besides, the entries for the “Bound percentage (b%)” value in series [2] (setting [6]), in series [2] (setting [7]) and in series [2] (setting [8]) were 92.97%, 91.15% and 91.03%, respectively. Further, the Kd with AGP is 33.9 µM; on HSA [3], 95.5 µM.
With `COCCCOc1ccnc(C[S@+]([O-])c2nc3ccccc3[nH]2)c1C` [S-rabeprazole], the “Bound percentage (b%), average” value is 97.98% and 97.98 ± 1.51% in series [4]; 88.84% and 88.84 ± 0.59% in series [2]. Besides, the “Bound percentage (b%)” value in series [4] (setting [6]) is reported as 98.17%; in series [4] (setting [7]), 99.39%; in series [4] (setting [8]), 96.39%; in series [2] (setting [6]), 88.85%; in series [2] (setting [7]), 88.24%; in series [2] (setting [8]) it was 89.42%. Also, the Kd in the series with AGP was 17.4 µM; at HSA [3], 38 µM.
